The values that follow come from patent US10017463B2, “Inhibitors of deubiquitinating proteases” (Brandeis University, priority 2014, dated 2018).

Where two headings read alike, the source gives them in different places.

One experiment relates to G76VUb-GFP in COS1 cells. Nature of the experiment: UbG76V-GFP proteasome assay in COS1 cells. The class given is cell-based. As to conditions: COS1, 8 h. As for the experimental part: COS1 cells at approx. 75% confluence in a 48 well plate were transiently transfected with a plasmid encoding G76VUb-GFP using Mirus 2020 reagent. After this time media with either compound in DMSO or 1% DMSO was added to the cells and the cells were incubated for 8 h. After this time, cells were trypsinized, diluted with 1% FBS in PBS (FACS buffer) then centrifuged at 700 g. After this time cells on ice were treated with FACS buffer containing propidium iodide (0.05 mg/mL). The GFP (indicating proteasome activity) and red fluorescence (dye exclusion showing acute toxicity) were subsequently measured by FACS.

For a further experiment, the target named is T1, cathepsin C (Mus musculus, UniProt P97821).
T1 construct: Mouse full length cathepsin C was from RnD systems; purchased RnD systems (Minneapolis, Minn.)
Nature of the experiment: Cathepsin C inhibition (Gly-Phe-AMC). The class given is biochemical. The following applies: for EC50 for cathepsin C inhibition: 30 min preincubation, substrate 150 μM. As for the experimental part: Panel A is a plot showing the KM calculation for cathepsin C and substrate, Gly-Phe-AMC. Panel B is a plot showing Cathepsin C was incubated with the stated compound for 30 min prior to addition of substrate and residual activity was measured. Panel C is a plot showing the EC50 values calculated from Panel B.
Cathepsin C is an enzyme important in inflammation. […] The assay was undertaken by incubating the enzyme in the presence of compound for 30 min, then adding substrate (150 μM; kM=75 μM) and measuring residual activity. […] TCM41, TCM42, TCM58, TCM43, and TCM97 (FIG. 12). […] Furthermore, substitution in the 3-position of the aniline function appeared to be more favored than 4-substitution (TCM97 vs TCM41). However substitution on the phenyl ester function was much less important for inhibition, with chloro, fluoro and proton all giving similar inhibition potencies.

Another experiment deals with T2, USP9x (Homo sapiens, UniProt Q93008).
T2 construct: Lysate labeling assay on untransfected cells; endogenous in cells; host or cells: K562
Nature of the experiment: HA-Ubiquitin-Vinylsulfone activity profiling in K562 lysates. The class given is biochemical. As for the experimental part: Panel B is an image of an immunoblot showing the titration of TCM23 and TCM28 in K562 lysates. Panel C is a plot showing the quantitation of band corresponding to USP9x in panel B. Panel D is an image of an immunoblot showing the titration of WP1130 in K562 lysates. Panel E is a plot showing the quantification of the efficacy of ITCs for the inhibition of USP9x in K562 lysates (see also Table 2).
[…] After this time HA-Ub-VS (1.5 μM) was added and incubated for 15 min. After this time reaction mixture (15 μL) was removed and quenched in 2× (final concentration) reducing Laemeli buffer. The reaction mixtures were heated to 37° C. for 10 min prior to analysis by western blot for HA.

In experiment [1] the test system is DUBs other than USP9x, most notably UCHL5. The experiment is described as follows: HA-Ubiquitin-Vinylsulfone activity profiling, other DUBs. The class given is biochemical. The method, then:
Lysate labeling assay on untransfected cells (1.5 mg/mL lysate lysed using a Dounce homogenizer, 10 strokes, in 75 mM potassium phosphate pH 7.6, 150 mM NaCl, 0.75 mM BME) was run with the stated concentration of inhibitor (or 1% DMSO control) for 30 min. After this time HA-Ub-VS (1.5 μM) was added and incubated for 15 min. After this time reaction mixture (15 μL) was removed and quenched in 2× (final concentration) reducing Laemeli buffer. The reaction mixtures were heated to 37° C. for 10 min prior to analysis by western blot for HA. […] EC50s calculated by this method were in agreement with those found in the HA-blot.

For experiment [2], the system named is BaF3/p210 cells. Nature of the experiment: Proliferation assay (Alamar Blue), BaF3/p210. The class given is cell-based, murine. The source says: This cell line consists of engineered murine leukemia cells that ectopically express Bcr-Abl. Parent BaF3 cells require exogenous interleukin 3 (IL3) because IL3 stimulates expression of MCL1, which is required for survival. However, BaF3/p210 cells require no exogenous interleukins but need Bcr-Abl for survival.
(The colour change of resazurin is a common sign of viable cells or microbes.)

A further experiment deals with DUBs. Nature of the experiment: Cy5-Ub-VME activity profiling of treated BaF3/p210 cells. The class given is cell-based, murine. The following applies: TU71 for 2.5 h or 4 h. As for the experimental part: FIG. 9 has two panels (A and B) depicting data showing that TUs inhibit DUBs in cells. BaF3/p210 cells were incubated with the stated concentration of compound for 4 h. After this time cells were lysed using beads, lysates were normalized, then exposed to Cy5-Ub-VME for 5 min. After quenching, lysates were resolved by SDS-PAGE, analyzed on typhoon, then stained by Coomassie. Panel A is an image of the SDS-PAGE gel visualized via Typhoon imager. Panel B is an image of the SDS PAGE gel stained with Coomassie.
(§1) Panel A is the chemical structure of TU71. Panel B is an image of an immunoblot showing a K562 cell was treated with TU71 for 15 min at which time HAUb-VS was added. After an additional 15 min, aliquots were quenched in reducing loading buffer and analyzed by SDS-PAGE and HA blot. […] BaF3/p21 0 cells were treated with TU71 for 2.5 h (Panel C) or 4 h (Panel D). Cells were harvested, lysed and incubated (0.7 mg/mL protein) with 250 nM Cy5-UbVME for 5 min at 37° C. […] Panel E is an image of an immunoblot showing BaF3/p210 cells were incubated with TU71 for 4 h. The cells were harvested, lysed, analyzed by SDS-PAGE and immunoblotted as indicated. “cPARP” indicates the caspase cleavage of product of PARP and is indicative of apoptosis. Panel F is a bar graph showing data representative of mean±range of two independent experiments, one performed in duplicate of the blot depicted in Panel E.
The increased promiscuity of the inhibitors when the experiment is carried out in cells likely stems from the increased assay time (4 h vs 20 min) coupled with the slow on rates of the inhibitors and their targets.

The subject of the next experiment is MCL-1. Nature of the experiment: MCL-1 immunoblot in BaF3/p210 cells. The class given is cell-based, murine. As to conditions: 4 h. The method, then:
as §1
(In general: In western blotting, separated proteins are transferred to a membrane and probed.)

Experiment [3] concerns BaF3/p210 cells. Nature of the experiment: Apoptosis (cPARP) in BaF3/p210 cells. The following applies: 4 h. The class given is cell-based, murine. The method, then: as §1
For another experiment, the system named is 3T3. Nature of the experiment: Proliferation assay, 3T3. The following applies: read-out: EC50 3T3; WP1130, time not stated.
A further experiment concerns HeLa. Nature of the experiment: Proliferation assay, HeLa. As to conditions: read-out: EC50 HeLa.
In the next experiment the test system is MCF7. Nature of the experiment: Proliferation assay, MCF7. As to conditions: read-out: EC50 MCF7.
Another experiment has as its system B16-F10. The experiment is described as follows: Proliferation assay, B16-F10. As to conditions: read-out: EC50 B16-F10; WP1130, time not stated.
The mark [4] stands for this setting: HA-Ub-VS profiling, values in text, read-out: EC50 for USP9x.
Where [5] appears, read: inhibition of USP9x in K562 lysates, data from FIG. 1, read-out: EC50.

For orientation: EC50 means the concentration giving half of the maximal effect.

T1 sequence (P97821 231-393 limits assumed): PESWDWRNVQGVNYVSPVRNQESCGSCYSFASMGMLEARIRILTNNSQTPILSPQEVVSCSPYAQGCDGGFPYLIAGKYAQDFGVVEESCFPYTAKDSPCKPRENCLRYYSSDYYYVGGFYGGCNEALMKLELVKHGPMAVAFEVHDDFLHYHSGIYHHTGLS
T1 sequence (P97821 25-134 limits assumed): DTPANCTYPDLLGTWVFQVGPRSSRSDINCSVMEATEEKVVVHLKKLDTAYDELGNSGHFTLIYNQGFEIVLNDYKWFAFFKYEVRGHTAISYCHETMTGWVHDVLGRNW
T1 sequence (P97821 394-462 limits assumed): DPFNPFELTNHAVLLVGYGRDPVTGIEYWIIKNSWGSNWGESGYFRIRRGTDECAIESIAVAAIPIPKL
T2 sequence (Q93008 whole entry): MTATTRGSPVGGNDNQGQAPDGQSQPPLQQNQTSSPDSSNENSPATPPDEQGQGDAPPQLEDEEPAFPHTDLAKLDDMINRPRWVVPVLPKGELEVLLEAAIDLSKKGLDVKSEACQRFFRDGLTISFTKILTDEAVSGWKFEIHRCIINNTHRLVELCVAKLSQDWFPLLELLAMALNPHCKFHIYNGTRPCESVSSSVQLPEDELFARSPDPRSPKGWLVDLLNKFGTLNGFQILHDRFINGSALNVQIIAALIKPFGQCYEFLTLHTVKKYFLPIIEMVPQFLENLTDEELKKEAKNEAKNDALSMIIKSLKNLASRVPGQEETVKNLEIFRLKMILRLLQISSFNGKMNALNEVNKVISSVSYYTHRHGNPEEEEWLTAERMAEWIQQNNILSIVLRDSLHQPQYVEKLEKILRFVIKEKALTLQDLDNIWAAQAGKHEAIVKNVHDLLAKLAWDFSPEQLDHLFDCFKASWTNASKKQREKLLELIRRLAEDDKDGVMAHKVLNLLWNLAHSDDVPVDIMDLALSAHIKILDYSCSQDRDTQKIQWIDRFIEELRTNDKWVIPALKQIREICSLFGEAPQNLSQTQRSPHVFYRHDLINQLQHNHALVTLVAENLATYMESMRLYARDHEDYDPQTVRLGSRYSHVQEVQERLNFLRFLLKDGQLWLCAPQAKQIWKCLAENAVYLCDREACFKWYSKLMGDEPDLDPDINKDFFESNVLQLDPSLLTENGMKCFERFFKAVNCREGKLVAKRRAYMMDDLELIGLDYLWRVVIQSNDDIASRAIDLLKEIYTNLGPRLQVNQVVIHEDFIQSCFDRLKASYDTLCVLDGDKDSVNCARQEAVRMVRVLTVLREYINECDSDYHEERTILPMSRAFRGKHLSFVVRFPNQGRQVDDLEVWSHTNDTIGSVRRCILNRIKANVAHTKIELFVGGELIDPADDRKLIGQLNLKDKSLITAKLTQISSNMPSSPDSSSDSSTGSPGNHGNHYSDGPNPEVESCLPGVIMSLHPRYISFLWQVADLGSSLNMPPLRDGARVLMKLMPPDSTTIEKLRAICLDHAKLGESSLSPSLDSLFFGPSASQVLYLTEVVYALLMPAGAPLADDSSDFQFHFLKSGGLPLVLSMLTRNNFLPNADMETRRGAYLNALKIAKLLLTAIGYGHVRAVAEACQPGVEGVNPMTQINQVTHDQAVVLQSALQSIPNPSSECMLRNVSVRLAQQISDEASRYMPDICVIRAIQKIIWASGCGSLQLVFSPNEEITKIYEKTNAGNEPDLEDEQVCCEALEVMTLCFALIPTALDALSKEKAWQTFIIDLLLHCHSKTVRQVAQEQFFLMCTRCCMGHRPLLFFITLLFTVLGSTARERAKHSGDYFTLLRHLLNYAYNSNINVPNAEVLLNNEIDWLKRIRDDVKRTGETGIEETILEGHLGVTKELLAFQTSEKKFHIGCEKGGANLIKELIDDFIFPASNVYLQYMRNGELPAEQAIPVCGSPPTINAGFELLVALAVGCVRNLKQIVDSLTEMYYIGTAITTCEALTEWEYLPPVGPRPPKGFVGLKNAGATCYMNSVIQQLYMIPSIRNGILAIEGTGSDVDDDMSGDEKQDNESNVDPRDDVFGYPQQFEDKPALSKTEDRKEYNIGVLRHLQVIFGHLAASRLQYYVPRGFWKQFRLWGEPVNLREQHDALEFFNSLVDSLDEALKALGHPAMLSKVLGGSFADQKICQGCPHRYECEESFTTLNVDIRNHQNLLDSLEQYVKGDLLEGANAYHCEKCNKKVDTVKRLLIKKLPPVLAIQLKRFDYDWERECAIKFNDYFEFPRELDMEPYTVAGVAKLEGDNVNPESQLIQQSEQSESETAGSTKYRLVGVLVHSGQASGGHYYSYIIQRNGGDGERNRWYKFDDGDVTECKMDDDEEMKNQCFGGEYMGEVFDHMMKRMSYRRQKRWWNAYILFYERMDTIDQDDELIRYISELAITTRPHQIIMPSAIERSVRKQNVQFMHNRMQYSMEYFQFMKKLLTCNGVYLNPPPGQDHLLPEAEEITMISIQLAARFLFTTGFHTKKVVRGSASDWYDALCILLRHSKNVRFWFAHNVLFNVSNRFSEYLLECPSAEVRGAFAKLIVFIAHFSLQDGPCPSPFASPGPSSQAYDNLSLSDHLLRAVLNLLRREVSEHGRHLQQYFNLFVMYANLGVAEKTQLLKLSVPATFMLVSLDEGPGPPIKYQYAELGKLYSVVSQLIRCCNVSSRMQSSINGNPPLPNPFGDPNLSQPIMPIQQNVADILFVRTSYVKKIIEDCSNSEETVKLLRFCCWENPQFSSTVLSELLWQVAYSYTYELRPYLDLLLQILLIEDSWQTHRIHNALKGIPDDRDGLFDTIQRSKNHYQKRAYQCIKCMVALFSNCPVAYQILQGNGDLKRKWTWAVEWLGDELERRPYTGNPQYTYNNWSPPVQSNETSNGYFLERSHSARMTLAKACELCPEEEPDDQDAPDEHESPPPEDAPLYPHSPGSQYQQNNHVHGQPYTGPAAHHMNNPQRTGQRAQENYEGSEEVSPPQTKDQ
Method for 3T3: (§2) Proliferation assays for adherent cells were conducted by plating cells at 5%-10% confluence in 96 well plates together with compound or 0.1% DMSO. Cells were allowed to grow for 48 h and then Alamar Blue® was added and number of cells was measured by fluorescence on a microplate reader.
Method for B16-F10: as §2
Method for HeLa: as §2
Method for MCF7: as §2

Regarding `CC(C)C[C@H](NC(=O)[C@H](Cc1ccccc1)NC(=O)c1cnccn1)B(O)O` [Bortezomib, reference compound], the GFP signal result in the experiment on G76VUb-GFP in COS1 cells is on record as “two-fold increase in GFP signal”.

In the case of `CC(C)(C)OC(=O)NCc1ccc(N(C(=S)Oc2ccc(Cl)cc2)C(=S)Oc2ccc(Cl)cc2)cc1` [TCM40], on cathepsin C, the “EC50 for cathepsin C inhibition” value is listed as “low micromolar range”.

As for `CC(C)(C)OC(=O)NCc1ccc(N(C(=S)Oc2ccccc2)C(=S)Oc2ccccc2)cc1` [TCM41], on cathepsin C, the “EC50 for cathepsin C inhibition” value is “low micromolar range”.

Regarding `Cc1ccc(OC(=S)N(C(=S)Oc2ccc(C)cc2)c2ccc(CNC(=O)OC(C)(C)C)cc2)cc1` [TCM42], the “EC50 for cathepsin C inhibition” value on cathepsin C is “low micromolar range”.

`CN(C)c1ccc(N(C(=S)Oc2ccccc2)C(=S)Oc2ccccc2)cc1` [TCM43]: on cathepsin C, the “relative potency as cathepsin C inhibitor” value was “most potent inhibitor” and the “EC50 for cathepsin C inhibition” value was “low micromolar range”.

In the case of `CC(C)(C)OC(=O)NCc1ccc(N(C(=S)Oc2ccc(F)cc2)C(=S)Oc2ccc(F)cc2)cc1` [TCM58], on cathepsin C, the “EC50 for cathepsin C inhibition” value is listed as “low micromolar range”.

As to `CC(C)(C)OC(=O)NCc1cccc(N(C(=S)Oc2ccccc2)C(=S)Oc2ccccc2)c1` [TCM97], the “EC50 for cathepsin C inhibition” value on cathepsin C is recorded as “low micromolar range”.

As to `Cc1cccc(N=C=S)c1` [TU70], the figures for the concentration giving a half-maximal response (EC50) on USP9x (setting [4]) and at USP9x (setting [5]) were more than 50 µM and 61 µM, respectively.

With `CC(C)(C)OC(=O)NCCc1cccc(N=C=S)c1` [TU71], the EC50 at USP9x (setting [4]) is 6 to 12 µM; at USP9x (K562 treated with TU71 for 15 min, then HAUb-VS 15 min (FIG. 13), read-out: EC50 for USP9x inhibition), 20 ± 1 µM; at USP9x (setting [5]), 9 µM. Also, the “inhibition of other DUBs other than USP9x” value in [1] (at 85 μM) is listed as “weak inhibition”. In addition, the “inhibition of other DUBs” value in experiment [1] (below 25 μM) is reported as “little inhibition”. Besides, the “growth inhibition of BaF3/p210 cells” value with BaF3/p210 cells [2] is on record as “did not show a significant growth inhibition until very high concentrations”. For the same molecule, in the experiment with DUBs, the “DUB inhibition in cells” value was “inhibits DUBs”. Also, the “level of MCL-1” value in the experiment on MCL-1 was “decreases the level”. Further, the apoptosis result in the experiment on BaF3/p210 cells [3] is on record as “initiates apoptosis”.

For the molecule `N#Cc1cc(F)cc(N=C=S)c1` [TU74], at USP9x (setting [5]), the EC50 worked out at 22 µM.

For `S=C=Nc1ccccc1` [TU76], the results for the EC50 on USP9x (setting [4]) and at USP9x (setting [5]) were more than 50 µM and 131 µM, respectively.

For `O=[N+]([O-])c1ccc(N=C=S)cc1` [TU79], at USP9x (setting [5]), the EC50 was determined as 11 µM.

On to `Fc1cccc(N=C=S)c1` [TU81], for which the EC50 at USP9x (setting [5]) came to 20 µM.

On to `CCC[C@H](NC(=O)/C(C#N)=C/c1cccc(Br)n1)c1ccccc1` [WP1130, reference compound], for which the EC50 on USP9x (setting [4]), in the experiment on 3T3, with HeLa, in the experiment with MCF7 and in the experiment with B16-F10 was 3 µM each time. Moreover, in experiment [1] (conditions as for USP9x EC50), the “inhibition of other USPs” value was “also inhibited”.
